Measurements: patent publication US8389680B2, “Treatment of Aspergillus infections with alpha thymosin peptides” (SciClone Pharmaceuticals, Inc., priority 2003, dated 2013)
Entries after “also recorded” stand apart in the source; their conditions may differ.

Key:
[1] = system: human MDC and PDC subsets; experiment: Activation of human MDC and PDC subsets: phagocytosis, phenotype, cytokine release; format: cell-based
Description: Blood CD 11c^+ myeloid DCs (MDCs) were generated from CD 14^+ mononuclear cells by magnetic cell sorting and cultured for 5 days in Iscove's modified medium, containing 10% fetal bovine serum, 50 micromolar 2-mercaptoethanol, sodium pyruvate (1 mM), 2 mM L-glutamine, HEPES (10 mM), and 50 micrograms/ml gentamycin in the presence of 50 ng/ml rHuman GM-CSF and 200 U/ml rHuman IL-4. Immature MDCs were cultured for 24 hours with 1000 ng/ml trimeric human CD40 ligand-leucine-zipper fusion protein to obtain mature DCs. CD 123^+ plasmacytoid DCs (PDCs) were isolated using the BDCA-4 isolation kit. Purity of CD 123^+ cells was >96%. For mature PDCs, immature DCs were cultured with the trimeric human CD40 ligand as above and 10 ng/ml IL-3. […] The expression of HLA Class II, CD80 and CD86 was high in both immature and mature DCs. Murine lung CD 11c^+ DCs (between 5 to 7% positive for CD8alpha and between 30 to 35% positive for Gr-1) were isolated by magnetic cell sorting. For phagocytosis, DCs were pre-exposed to 100 ng/ml TA1 for 60 minutes and subsequently incubated at 37° C. with Aspergillus conidia for an additional 60 minutes. The percentage of internalization was calculated and photographs were taken. In assessing functional maturation and cytokine determination, purified DCs were resuspended in Iscove's medium (with no serum but with polymixin B, to avoid non-specific activation by serum components and endotoxin) and pulsed with 100 ng/ml TA1 for 24 hours either alone or together with TLR ligands or unopsonized Aspergillus conidia. Cell surface phenotype was assessed by reacting samples with FITC- or PE-conjugated rat anti-mouse antibodies. Unrelated hisotype matched antibodies were used as control. The levels of TNF-alpha, IL-10, IL-12 p70, IFN-alpha and IL-8 in culture supernatants were determined by Kit ELISAs. The detection limits (pg/ml) of the assays were <3 (human) and <32 (murine) for TNF-alpha, <12 (murine) and <5 (human) for IL-10, <16 (murine) and <3 (human) for IL-12 p70 and <25 (human) IL-8. For human IFN-alpha <3 ng/ml. For enumeration of cytokine-producing cells, an ELISPOT assay was used on purified CD4^+ T cells and DCs from lungs.

human TLR9 = molecular target: T1, human TLR9 (Homo sapiens, UniProt Q9NR96); experiment: IL-8 production by TLR9-transfected HEK293 cells; format: cell-based
T1 construct: expressed in transfected cells; host or cells: HEK293
T1 sequence (Q9NR96 26-1032): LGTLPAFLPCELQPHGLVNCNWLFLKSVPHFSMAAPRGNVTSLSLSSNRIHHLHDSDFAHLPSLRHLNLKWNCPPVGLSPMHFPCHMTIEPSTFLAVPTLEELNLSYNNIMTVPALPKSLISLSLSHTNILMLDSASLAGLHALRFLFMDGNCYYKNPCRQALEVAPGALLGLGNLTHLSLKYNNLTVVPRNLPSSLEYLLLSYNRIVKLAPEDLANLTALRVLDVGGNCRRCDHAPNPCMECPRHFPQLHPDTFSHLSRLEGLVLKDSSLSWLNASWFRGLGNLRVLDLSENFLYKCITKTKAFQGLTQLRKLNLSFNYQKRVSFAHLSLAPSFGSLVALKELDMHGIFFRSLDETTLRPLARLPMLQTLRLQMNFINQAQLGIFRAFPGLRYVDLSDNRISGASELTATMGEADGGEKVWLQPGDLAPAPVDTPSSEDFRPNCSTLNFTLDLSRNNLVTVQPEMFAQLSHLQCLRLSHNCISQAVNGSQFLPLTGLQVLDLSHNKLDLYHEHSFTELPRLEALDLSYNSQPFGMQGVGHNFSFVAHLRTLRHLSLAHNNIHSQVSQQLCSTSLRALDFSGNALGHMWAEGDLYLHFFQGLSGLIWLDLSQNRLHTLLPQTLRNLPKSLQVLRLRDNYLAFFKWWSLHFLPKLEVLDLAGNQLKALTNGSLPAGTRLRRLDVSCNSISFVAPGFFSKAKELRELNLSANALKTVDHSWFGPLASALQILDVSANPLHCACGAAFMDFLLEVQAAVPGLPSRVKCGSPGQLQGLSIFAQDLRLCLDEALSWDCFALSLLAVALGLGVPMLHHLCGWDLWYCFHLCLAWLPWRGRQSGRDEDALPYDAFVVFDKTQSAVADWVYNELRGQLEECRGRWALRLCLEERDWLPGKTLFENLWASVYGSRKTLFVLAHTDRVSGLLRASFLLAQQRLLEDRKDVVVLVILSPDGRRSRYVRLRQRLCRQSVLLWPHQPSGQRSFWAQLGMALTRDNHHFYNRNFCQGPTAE
Description: The human embryonic kidney cell line HEK293, wild type or stably transfected with human TLR2, TLR9 and TLR4/CD1427 were cultured in low glucose Dulbecco's modified Eagle's medium supplemented with 10% FCS, HEPES ([…]), L-glutamine ([…]), and gentamycin (50 microgram/ml). Transfectants were additionally supplemented with puromycin (100 microgram/ml). For stimulation experiments, cells were cultured at a density of 3 to 5×10^5 cells/wells in 12-well tissue culture plates overnight. Cells were washed and stimulated with 100 ng/ml TA1 either alone or together with TLR ligands for 5 h before the assessment of IL-8 production in the supernatants.
The levels of TNF-alpha, IL-10, IL-12 p70, IFN-alpha and IL-8 in culture supernatants were determined by Kit ELISAs. The detection limits (pg/ml) of the assays were <3 (human) and <32 (murine) for TNF-alpha, <12 (murine) and <5 (human) for IL-10, <16 (murine) and <3 (human) for IL-12 p70 and <25 (human) IL-8. For human IFN-alpha <3 ng/ml. For enumeration of cytokine-producing cells, an ELISPOT assay was used on purified CD4^+ T cells and DCs from lungs.

For “Ac-Ser-Asp-Ala-Ala-Val-Asp-Thr-Ser-Ser-Glu-Ile-Thr-Thr-Lys-Asp-Leu-Lys-Glu-Lys-Lys-Glu-Val-Glu-Glu-Ala-Glu-Asn-O (Ac-SDAAVDTSSEITTKDLKEKKEVEEAEN-OH) [TA1, naturally occurring thymic peptide]”, the “activation of human MDC and PDC subsets” value ([1]; 100 ng/ml) was “activates”, the “phagocytic activity of immature DCs” value ([1]; Aspergillus conidia, 100 ng/ml pre-exposure 60 minutes) was “increased” and the IFN-alpha production ([1]; PDCs, in response to the TLR9 ligand CpG) was “significantly potentiated”. For the same substance, the DC morphology ([1]; immature MDCs) was “more cytoplasmic projections”, the “release of IL-12 p70” value ([1]; immature MDCs, in response to conidia) was “significantly increase” and the “release of IL-12 p70” value ([1]; immature MDCs, in response to zymosan) was “significantly increase”. The “release of IL-10” value ([1]; immature PDCs, in response to conidia) was “significantly increase”, the “HLA Class II antigens and costimulatory molecule expression” value ([1]; in response to conidia) was “up-regulate” and the “production of IL-8” value (human TLR9; TA1 alone, 100 ng/ml, 5 h) was “directly activate; also recorded: significantly increased”. The “production of IL-8” value (human TLR9; in response to the TLR9 ligand CpG) was “significantly increased”.
